According to PubChem BioAssay AID1918958 (Molecular Pharmacology Branch, DTP, NCI, 2023):

Test system: NCI-H196 complex spheroid viability
Assay: Anticancer human tumor NCI-H196 cell line growth inhibition [LSD1];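 also: spheroids exposed to agents for 7 days before readout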;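 as to viability, T/C: 100% = DMSO vehicle control viability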
Settings: for IC50: curve of first compound; for viability, T/C: stronger effect = lower value; active = viability on the fitted dose curve at most 10% of control; inactive = the rest
Method in brief: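 Multicellular complex spheroids of tumor cells with human endothelial cells (HUVEC) and mesenchymal stem cells; the LSD1 inhibitor iadademstat was combined with standard-of-care or investigational agents. Top concentration at or near clinical Cmax, half-log dilutions; final DMSO ≤0.25%.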

[1] = second compound 0.1 µM, first compound 0.0316 µM
[2] = second compound 0.1 µM, first compound 0.1 µM
[3] = second compound 0.1 µM, first compound 0.316 µM
[4] = second compound 0.1 µM, first compound 1 µM
[5] = second compound 0.316 µM, first compound 0.0316 µM
[6] = second compound 0.316 µM, first compound 0.1 µM
[7] = second compound 0.316 µM, first compound 0.316 µM
[8] = second compound 0.316 µM, first compound 1 µM
[9] = second compound 1 µM, first compound 0.0316 µM
[10] = second compound 1 µM, first compound 0.1 µM
[11] = second compound 1 µM, first compound 0.316 µM
[12] = second compound 1 µM, first compound 1 µM
[13] = second compound 3.16 µM, first compound 0.0316 µM
[14] = second compound 3.16 µM, first compound 0.1 µM
[15] = second compound 3.16 µM, first compound 0.316 µM
[16] = second compound 3.16 µM, first compound 1 µM
[17] = second compound 10 µM, first compound 0.0316 µM
[18] = second compound 10 µM, first compound 0.1 µM
[19] = second compound 10 µM, first compound 0.316 µM
[20] = second compound 10 µM, first compound 1 µM

Nc1ncn(C2CC(O)C(CO)O2)c(=O)n1 (stereo not given) + NC1CCC(NC2CC2c2ccccc2)CC1
inactive: viability, T/C (second compound 0.1 µM, first compound 0.00316 µM) 94.3% | viability, T/C (second compound 0.1 µM, first compound 0.01 µM) 96.1% | viability, T/C [1] 96.1% | viability, T/C [2] 92.5% | viability, T/C [3] 93.3% | viability, T/C [4] 93% | viability, T/C (second compound 0.316 µM, first compound 0.00316 µM) 91% | viability, T/C (second compound 0.316 µM, first compound 0.01 µM) 97.4% | viability, T/C [5] 114% | viability, T/C [6] 96.7% | viability, T/C [7] 96.9% | viability, T/C [8] 99.3% | viability, T/C (second compound 1 µM, first compound 0.00316 µM) 87.8% | viability, T/C (second compound 1 µM, first compound 0.01 µM) 94.9% | viability, T/C [9] 94.9% | viability, T/C [10] 88.5% | viability, T/C [11] 93.8% | viability, T/C [12] 101% | viability, T/C (second compound 3.16 µM, first compound 0.00316 µM) 94.5% | viability, T/C (second compound 3.16 µM, first compound 0.01 µM) 95.8% | viability, T/C [13] 99.2% | viability, T/C [14] 89.6% | viability, T/C [15] 87.1% | viability, T/C [16] 91.2% | viability, T/C (second compound 10 µM, first compound 0.00316 µM) 91.2% | viability, T/C (second compound 10 µM, first compound 0.01 µM) 94.8% | viability, T/C [17] 91.2% | viability, T/C [18] 87.5% | viability, T/C [19] 92.9% | viability, T/C [20] 91.3%
> 1 µM: IC50 (second compound 0.1 µM) | IC50 (second compound 0.316 µM) | IC50 (second compound 1 µM) | IC50 (second compound 3.16 µM) | IC50 (second compound 10 µM)

O=C(c1cc(Cc2n[nH]c(=O)c3ccccc23)ccc1F)N1CCN(C(=O)C2CC2)CC1 + NC1CCC(NC2CC2c2ccccc2)CC1
inactive: viability, T/C [1] 91.8% | viability, T/C [2] 97.9% | viability, T/C [3] 91.7% | viability, T/C [4] 86.5% | viability, T/C (second compound 0.1 µM, first compound 3.16 µM) 93.5% | viability, T/C (second compound 0.1 µM, first compound 10 µM) 88.3% | viability, T/C [5] 89.8% | viability, T/C [6] 103% | viability, T/C [7] 97.8% | viability, T/C [8] 94.8% | viability, T/C (second compound 0.316 µM, first compound 3.16 µM) 83.4% | viability, T/C (second compound 0.316 µM, first compound 10 µM) 83% | viability, T/C [9] 89.9% | viability, T/C [10] 91.4% | viability, T/C [11] 95.6% | viability, T/C [12] 83.5% | viability, T/C (second compound 1 µM, first compound 3.16 µM) 89% | viability, T/C (second compound 1 µM, first compound 10 µM) 80.1% | viability, T/C [13] 91% | viability, T/C [14] 87% | viability, T/C [15] 88% | viability, T/C [16] 87.4% | viability, T/C (second compound 3.16 µM, first compound 3.16 µM) 85.7% | viability, T/C (second compound 3.16 µM, first compound 10 µM) 87.5% | viability, T/C [17] 89.9% | viability, T/C [18] 90.2% | viability, T/C [19] 88.1% | viability, T/C [20] 89.5% | viability, T/C (second compound 10 µM, first compound 3.16 µM) 85.7% | viability, T/C (second compound 10 µM, first compound 10 µM) 86.8%
> 10 µM: IC50 (second compound 0.1 µM) | IC50 (second compound 0.316 µM) | IC50 (second compound 1 µM) | IC50 (second compound 3.16 µM) | IC50 (second compound 10 µM)

NS(=O)(=O)OCC1CC(n2ccc3c(NC4CCc5ccccc54)ncnc32)CC1O (stereo not given) + NC1CCC(NC2CC2c2ccccc2)CC1
inactive: viability, T/C (second compound 0.1 µM, first compound 0.00949 µM) 109% | viability, T/C (second compound 0.1 µM, first compound 0.03 µM) 103% | viability, T/C (second compound 0.1 µM, first compound 0.0949 µM) 79.6% | viability, T/C (second compound 0.1 µM, first compound 0.3 µM) 89.3% | viability, T/C (second compound 0.1 µM, first compound 0.949 µM) 84.7% | viability, T/C (second compound 0.1 µM, first compound 3 µM) 71.4% | viability, T/C (second compound 0.316 µM, first compound 0.00949 µM) 108% | viability, T/C (second compound 0.316 µM, first compound 0.03 µM) 104% | viability, T/C (second compound 0.316 µM, first compound 0.0949 µM) 79.2% | viability, T/C (second compound 0.316 µM, first compound 0.3 µM) 78% | viability, T/C (second compound 0.316 µM, first compound 0.949 µM) 78.6% | viability, T/C (second compound 0.316 µM, first compound 3 µM) 72.7% | viability, T/C (second compound 1 µM, first compound 0.00949 µM) 103% | viability, T/C (second compound 1 µM, first compound 0.03 µM) 101% | viability, T/C (second compound 1 µM, first compound 0.0949 µM) 76.2% | viability, T/C (second compound 1 µM, first compound 0.3 µM) 81.8% | viability, T/C (second compound 1 µM, first compound 0.949 µM) 82.7% | viability, T/C (second compound 1 µM, first compound 3 µM) 77.6% | viability, T/C (second compound 3.16 µM, first compound 0.00949 µM) 92.5% | viability, T/C (second compound 3.16 µM, first compound 0.03 µM) 109% | viability, T/C (second compound 3.16 µM, first compound 0.0949 µM) 77.7% | viability, T/C (second compound 3.16 µM, first compound 0.3 µM) 80.5% | viability, T/C (second compound 3.16 µM, first compound 0.949 µM) 76.9% | viability, T/C (second compound 3.16 µM, first compound 3 µM) 71.6% | viability, T/C (second compound 10 µM, first compound 0.00949 µM) 102% | viability, T/C (second compound 10 µM, first compound 0.03 µM) 95.4% | viability, T/C (second compound 10 µM, first compound 0.0949 µM) 73.6% | viability, T/C (second compound 10 µM, first compound 0.3 µM) 83.6% | viability, T/C (second compound 10 µM, first compound 0.949 µM) 78.3% | viability, T/C (second compound 10 µM, first compound 3 µM) 64.7%
> 3 µM: IC50 (second compound 0.1 µM) | IC50 (second compound 0.316 µM) | IC50 (second compound 1 µM) | IC50 (second compound 3.16 µM) | IC50 (second compound 10 µM)
